Oligonucleotides are written 5' to 3', each unit as a sugar letter and its base; * is a phosphorothioate linkage, no mark a phosphodiester; rarer units and linkages stand in square brackets, end groups in braces. Plain capitals give the bases only. d = 2'-deoxy (DNA); r = 2'-OH (RNA)
Note: test concentration or dose not given here.

The target in this data set is P2rx2 (rat). Kind of data set: reporter assay of Huesken 2005. Conditions: siRNA. Background: In a reporter assay the amount or activity of a reporter protein is the signal.
With “sense rArGrGrArUrCrGrArGrGrUrUrArCrCrCrCrUrUdTdT / antisense rArArGrGrGrGrUrArArCrCrUrCrGrArUrCrCrUdGdG”, the normalised inhibition (eCFP-eYFP dual reporter) was found to be 76.8%.
Substance “sense rArGrGrCrUrGrGrGrUrUrUrCrArUrUrGrUrUrGdTdT / antisense rCrArArCrArArUrGrArArArCrCrCrArGrCrCrUdGdA” had a normalised inhibition (eCFP-eYFP dual reporter) of 64.9%.
Turning to “sense rArGrGrGrCrArCrUrGrUrGrUrArCrCrCrUrArUdTdT / antisense rArUrArGrGrGrUrArCrArCrArGrUrGrCrCrCrUdGdT”, the normalised inhibition (eCFP-eYFP dual reporter) was 55%.
The substance “sense rArGrUrCrArCrUrArCrUrCrCrCrArGrGrArUrCdTdT / antisense rGrArUrCrCrUrGrGrGrArGrUrArGrUrGrArCrUdAdG” showed a normalised inhibition (eCFP-eYFP dual reporter) of 64.6%.
In turn, “sense rArGrUrCrArUrCrArUrCrArArCrUrGrGrArArCdTdT / antisense rGrUrUrCrCrArGrUrUrGrArUrGrArUrGrArCrUdCdC” had a normalised inhibition (eCFP-eYFP dual reporter) of 33.7%.
In turn, “sense rCrArArGrGrCrArArUrGrGrGrArUrUrCrGrCrAdTdT / antisense rUrGrCrGrArArUrCrCrCrArUrUrGrCrCrUrUrGdCdA” displayed a normalised inhibition (eCFP-eYFP dual reporter) of 64.4%.
Substance “sense rCrArCrCrArCrUrCrGrArArCrUrCrUrCrArUrCdTdT / antisense rGrArUrGrArGrArGrUrUrCrGrArGrUrGrGrUrGdGdT” came in with a normalised inhibition (eCFP-eYFP dual reporter) of 64.7%.
As for “sense rCrArCrUrArCrUrCrCrCrArGrGrArUrCrArGrCdTdT / antisense rGrCrUrGrArUrCrCrUrGrGrGrArGrUrArGrUrGdAdC”, the normalised inhibition (eCFP-eYFP dual reporter) came out at 46.4%.
Substance “sense rCrArGrCrArUrArUrGrGrGrArCrArArArGrArCdTdT / antisense rGrUrCrUrUrUrGrUrCrCrCrArUrArUrGrCrUrGdGdC” showed a normalised inhibition (eCFP-eYFP dual reporter) of 51.7%.
For the substance “sense rCrArGrUrGrUrArGrUrCrArGrCrArUrCrArUrCdTdT / antisense rGrArUrGrArUrGrCrUrGrArCrUrArCrArCrUrGdCdC”, the normalised inhibition (eCFP-eYFP dual reporter) is 78.4%.
Next, “sense rCrArUrCrArUrCrArCrCrArArArGrUrCrArArGdTdT / antisense rCrUrUrGrArCrUrUrUrGrGrUrGrArUrGrArUrGdGdA”: 71.5%.
“sense rCrArUrCrUrCrUrGrCrUrCrUrGrArCrUrGrArGdTdT / antisense rCrUrCrArGrUrCrArGrArGrCrArGrArGrArUrGdGdA” gave a normalised inhibition (eCFP-eYFP dual reporter) of 42.7%.
Take “sense rCrArUrUrGrUrUrGrArGrArArGrGrCrArGrGrAdTdT / antisense rUrCrCrUrGrCrCrUrUrCrUrCrArArCrArArUrGdAdA”: the normalised inhibition (eCFP-eYFP dual reporter) is 61.4%.
“sense rCrCrArArGrArCrCrUrGrCrGrArGrGrUrGrUrCdTdT / antisense rGrArCrArCrCrUrCrGrCrArGrGrUrCrUrUrGrGdAdG” displayed a normalised inhibition (eCFP-eYFP dual reporter) of 68.7%.
As for “sense rCrCrGrGrArGrArGrCrUrCrCrArUrCrArUrCrAdTdT / antisense rUrGrArUrGrArUrGrGrArGrCrUrCrUrCrCrGrGdTdC”, the normalised inhibition (eCFP-eYFP dual reporter) came to 54.2%.
Next, “sense rCrGrGrArArGrArCrArArArGrUrGrUrGrGrGrAdTdT / antisense rUrCrCrCrArCrArCrUrUrUrGrUrCrUrUrCrCrGdAdC”: 64.6%.
“sense rCrGrUrGrCrArGrArArArArGrCrUrArCrCrArGdTdT / antisense rCrUrGrGrUrArGrCrUrUrUrUrCrUrGrCrArCrGdAdT” yielded a normalised inhibition (eCFP-eYFP dual reporter) of 80.5%.
Regarding “sense rCrUrArCrArArCrUrUrCrArGrGrUrUrUrGrCrCdTdT / antisense rGrGrCrArArArCrCrUrGrArArGrUrUrGrUrArGdCdC”, the normalised inhibition (eCFP-eYFP dual reporter) was determined as 57%.
“sense rCrUrArCrCrCrCrArArGrUrUrCrArArGrUrUrCdTdT / antisense rGrArArCrUrUrGrArArCrUrUrGrGrGrGrUrArGdTdG” registered a normalised inhibition (eCFP-eYFP dual reporter) of 62.8%.
“sense rCrUrCrCrArUrCrGrGrGrGrUrGrGrGrCrUrCrCdTdT / antisense rGrGrArGrCrCrCrArCrCrCrCrGrArUrGrGrArGdGdT”: the normalised inhibition (eCFP-eYFP dual reporter) is 38.5%.
Substance “sense rCrUrCrCrUrUrCrCrUrGrUrGrUrGrArCrUrGrGdTdT / antisense rCrCrArGrUrCrArCrArCrArGrGrArArGrGrArGdCdC” showed a normalised inhibition (eCFP-eYFP dual reporter) of 47.5%.
The substance “sense rCrUrCrUrGrArCrUrGrArGrCrArGrGrUrGrGrUdTdT / antisense rArCrCrArCrCrUrGrCrUrCrArGrUrCrArGrArGdCdA” gave a normalised inhibition (eCFP-eYFP dual reporter) of 46.8%.
For “sense rCrUrGrArCrArArCrCrArUrUrUrUrCrUrGrGrGdTdT / antisense rCrCrCrArGrArArArArUrGrGrUrUrGrUrCrArGdAdA”, the normalised inhibition (eCFP-eYFP dual reporter) was found to be 40.3%.
Next, “sense rCrUrGrGrArArCrUrGrUrGrArCrCrUrGrGrArCdTdT / antisense rGrUrCrCrArGrGrUrCrArCrArGrUrUrCrCrArGdTdT”: 70.3%.
Next, “sense rCrUrGrGrArCrArUrGrCrArArGrGrCrArArUrGdTdT / antisense rCrArUrUrGrCrCrUrUrGrCrArUrGrUrCrCrArGdCdT”: 55.2%; “sense rCrUrUrGrGrCrCrArGrCrArUrArUrGrGrGrArCdTdT / antisense rGrUrCrCrCrArUrArUrGrCrUrGrGrCrCrArArGdTdG”: 52%; “sense rGrArArArUrUrCrArGrUrCrUrCrArUrUrCrCrCdTdT / antisense rGrGrGrArArUrGrArGrArCrUrGrArArUrUrUrCdCdC”: 39.7%.
Next, “sense rGrArCrArGrCrUrGrGrArCrArUrGrCrArArGrGdTdT / antisense rCrCrUrUrGrCrArUrGrUrCrCrArGrCrUrGrUrCdCdG”: 35.3%; “sense rGrArCrCrCrUrGrCrCrUrCrCrUrCrArGrGrCrUdTdT / antisense rArGrCrCrUrGrArGrGrArGrGrCrArGrGrGrUrCdAdT”: 61.9%; “sense rGrArGrGrArArUrArCrGrUrArArArGrCrCrCrCdTdT / antisense rGrGrGrGrCrUrUrUrArCrGrUrArUrUrCrCrUrCdCdA”: 34.9%.
“sense rGrArUrCrArGrGrArCrUrCrUrGrArCrCrCrArUdTdT / antisense rArUrGrGrGrUrCrArGrArGrUrCrCrUrGrArUrCdAdA”: the normalised inhibition (eCFP-eYFP dual reporter) amounted to 81.3%.
Next, “sense rGrCrArUrCrArUrCrArCrCrArGrGrArUrCrGrAdTdT / antisense rUrCrGrArUrCrCrUrGrGrUrGrArUrGrArUrGrCdTdG”: 78.5%; “sense rGrCrCrArCrCrCrArGrCrCrCrUrCrCrArUrCrAdTdT / antisense rUrGrArUrGrGrArGrGrGrCrUrGrGrGrUrGrGrCdTdG”: 60.8%.
Next, “sense rGrCrCrArUrArArGrArArGrUrUrCrGrArCrArAdTdT / antisense rUrUrGrUrCrGrArArCrUrUrCrUrUrArUrGrGrCdTdG”: 88.6%.
Take “sense rGrCrCrCrGrGrUrGrGrArGrGrArUrGrGrArArCdTdT / antisense rGrUrUrCrCrArUrCrCrUrCrCrArCrCrGrGrGrCdAdC”: the normalised inhibition (eCFP-eYFP dual reporter) is 48.4%.
Take “sense rGrCrUrArCrCrArGrGrArCrArGrCrGrArGrArCdTdT / antisense rGrUrCrUrCrGrCrUrGrUrCrCrUrGrGrUrArGrCdTdT”: the normalised inhibition (eCFP-eYFP dual reporter) amounted to 60.5%.
The substance “sense rGrCrUrCrUrArCrCrUrGrCrCrArUrUrCrArGrAdTdT / antisense rUrCrUrGrArArUrGrGrCrArGrGrUrArGrArGrCdTdG” registered a normalised inhibition (eCFP-eYFP dual reporter) of 79.4%.
As to “sense rGrGrArArGrArCrArArArGrUrGrUrGrGrGrArCdTdT / antisense rGrUrCrCrCrArCrArCrUrUrUrGrUrCrUrUrCrCdGdA”, the normalised inhibition (eCFP-eYFP dual reporter) is 69.5%.
Take “sense rGrGrArGrArGrArArCrUrUrCrArCrArGrArArCdTdT / antisense rGrUrUrCrUrGrUrGrArArGrUrUrCrUrCrUrCrCdTdG”: the normalised inhibition (eCFP-eYFP dual reporter) was 61.7%.
The substance “sense rGrGrCrArGrGrGrArArArUrUrCrArGrUrCrUrCdTdT / antisense rGrArGrArCrUrGrArArUrUrUrCrCrCrUrGrCrCdTdG” had a normalised inhibition (eCFP-eYFP dual reporter) of 51.5%.
Take “sense rGrGrGrArArArUrUrCrArGrUrCrUrCrArUrUrCdTdT / antisense rGrArArUrGrArGrArCrUrGrArArUrUrUrCrCrCdTdG”: the normalised inhibition (eCFP-eYFP dual reporter) worked out at 72.6%.
Next, “sense rGrGrGrArUrUrCrGrCrArCrArGrGrGrCrArCrUdTdT / antisense rArGrUrGrCrCrCrUrGrUrGrCrGrArArUrCrCrCdAdT”: 66%; “sense rGrGrUrGrCrGrGrArArUrCrGrGrCrGrCrCrUrGdTdT / antisense rCrArGrGrCrGrCrCrGrArUrUrCrCrGrCrArCrCdAdC”: 69.3%.
Next, “sense rGrGrUrGrGrUrGrGrArCrArCrArCrUrUrGrGrCdTdT / antisense rGrCrCrArArGrUrGrUrGrUrCrCrArCrCrArCrCdTdG”: 52.2%; “sense rGrUrGrUrCrArUrUrGrGrArGrUrCrArUrCrArUdTdT / antisense rArUrGrArUrGrArCrUrCrCrArArUrGrArCrArCdCdG”: 59%; “sense rUrArCrCrUrCrArArGrCrArUrUrGrCrArCrArUdTdT / antisense rArUrGrUrGrCrArArUrGrCrUrUrGrArGrGrUrAdGdT”: 72.3%.
Take “sense rUrCrArArGrUrArGrArUrGrGrCrCrUrGrUrGrAdTdT / antisense rUrCrArCrArGrGrCrCrArUrCrUrArCrUrUrGrAdGdG”: the normalised inhibition (eCFP-eYFP dual reporter) amounted to 67.1%.
Take “sense rUrCrArGrCrCrArCrCrCrArGrCrCrCrUrCrCrAdTdT / antisense rUrGrGrArGrGrGrCrUrGrGrGrUrGrGrCrUrGrAdTdC”: the normalised inhibition (eCFP-eYFP dual reporter) was found to be 51.2%.
The substance “sense rUrCrArUrCrArArGrArArCrArGrCrArUrCrCrAdTdT / antisense rUrGrGrArUrGrCrUrGrUrUrCrUrUrGrArUrGrAdGdG” came in with a normalised inhibition (eCFP-eYFP dual reporter) of 53.7%.

The values above are taken from the OligoGym collection.
